Values joined by “and” are separate entries in the source; they are usually repeats but may differ in a detail not shown here. Identical values can stand only once. Like-named read-outs stand apart in the source and are kept apart here.
What was measured:
Bax = test: Apoptotic markers assay, Bax level in A-549 cells; format: cell-based, human; conditions: for Bax level: control 60; for Bax fold change: relative to untreated control
Protocol: (§1) The Bcl-2 protein family, comprising inducer proteins (Bax) and suppressor proteins (Bcl-2), primarily regulates apoptosis.
(§2) Appendix A gives more details.
Bring all reagents, except the human Bax-α Standard, to room temperature for at least 30 minutes prior to opening. The human Bax-α Standard solution should not be left at room temperature for more than 10 minutes. All standards, controls and samples should be run in duplicate. Refer to the Assay Layout Sheet to determine the number of wells to be used and put any remaining wells with the desiccant back into the pouch and seal the ziploc. Store unused wells at 4 °C. Pipet 100 μL of Assay Buffer into the S0 (0 pg/mL standard) wells. Pipet 100 μL of Standards #1 through #6 into the appropriate wells. Pipet 100 μL of the Samples into the appropriate wells. Tap the plate gently to mix the contents. Seal the plate and incubate at room temperature on a plate shaker for 1 hour at ~500 rpm. Empty the contents of the wells and wash by adding 400 μL of wash solution to every well. Repeat the wash 4 more times for a total of 5 washes. After the final wash, empty or aspirate the wells and firmly tap the plate on a lint free paper towel to remove any remaining wash buffer. Pipet 100 μL of yellow Antibody into each well, except the Blank. Seal the plate and incubate at room temperature on a plate shaker for 1 hour at ~500 rpm. Empty the contents of the wells and wash by adding 400 μL of wash solution to every well. Repeat the wash 4 more times for a total of 5 washes. After the final wash, empty or aspirate the wells and firmly tap the plate on a lint free paper towel to remove any remaining wash buffer. Add 100 μL of blue Conjugate to each well, except the Blank. Seal the plate and incubate at room temperature on a plate shaker for 30 minutes at ~500 rpm. Empty the contents of the wells and wash by adding 400 μL of wash solution to every well. Repeat the wash 4 more times for a total of 5 washes. After the final wash, empty or aspirate the wells and firmly tap the plate on a lint free paper towel to remove any remaining wash buffer. Pipet 100 μL of Substrate Solution into each well. Incubate for 30 minutes at room temperature on a plate shaker at ~500 rpm. Pipet 100 μL Stop Solution to each well. Blank the plate reader against the Blank wells, read the optical density at 450 nm. Calculate the average net Optical Density (OD) bound for each standard and sample by subtracting the average Blank OD from the average OD for each standard and sample. Using linear graph paper, plot the Average Net OD for each standard versus Bax concentration in each standard. Approximate a straight line through the points. The concentration of Bax in the unknowns can be determined by interpolation.

Bcl-2 = test: Apoptotic markers assay, Bcl-2 level in A-549 cells; format: cell-based, human; conditions: for Bcl-2 level: control 5
Protocol: as §1, §2
Mix all the reagents thoroughly without foaming before use. Wash the microwells twice with approximately 300 μL Wash Buffer per well with thorough aspiration of microwell contents between washes. Take caution not to scratch the surface of the microwells. After the last wash, empty the wells and tap microwell strips on absorbent pad or paper towel to remove excess Wash Buffer. Use the microwell strips immediately after washing or place upside down on a wet absorbent paper for not longer than 15 minutes. […] Add 100 μL of Sample Diluent in duplicate to all standard wells and to the blank wells. Prepare standard (1:2 dilution) in duplicate ranging from 32 ng/mL to 0.5 ng/mL. Add 100 μL of Sample Diluent, in duplicate, to the blank wells. Add 80 μL of Sample Diluent, in duplicate, to the sample wells. Add 20 μL of each Sample, in duplicate, to the designated wells. Add 50 μL of diluted biotin-conjugate to all wells, including the blank wells. Cover with a plate cover and incubate at room temperature, on a microplate shaker at 100 rpm if available, for 2 hours. Remove plate cover and empty the wells. Wash microwell strips 3 times as described in step 2. Add 100 μL of diluted Streptavidin-HRP to all wells, including the blank wells. Cover with a plate cover and incubate at room temperature, on a microplate shaker at 100 rpm if available, for 1 hour. Remove the plate cover and empty the wells. Wash microwell strips 3 times as described in step 2. Proceed to the next step. Pipette 100 μl of mixed TMB Substrate Solution to all wells, including the blanks. Incubate the microwell strips at room temperature (18° to 25°C) for about 15 minutes, if available on a rotator set at 100 rpm. Avoid direct exposure to intense light. The point, at which the substrate reaction is stopped, is often determined by the ELISA reader. Many ELISA readers record absorbance only up to 2.0 O.D. Therefore, the color development within individual microwells must be watched by the person running the assay and the substrate reaction stopped before positive wells are no longer properly detectable. Stop the enzyme reaction by quickly pipetting 100 μL of Stop Solution into each well, including the blank wells. It is important that the Stop Solution is spread quickly and uniformly throughout the microwells to completely inactivate the enzyme. Results must be read immediately after the Stop Solution is added or within one hour if the microwell strips are stored at 2 - 8°C in the dark. Read the absorbance of each microwell on a spectrophotometer using 450 nm as the primary wavelength.

p53 = test: Apoptotic markers assay, p53 level in A-549 cells; format: cell-based, human; conditions: control 65
Text: as §1
A prime example of a gene product is the p53 protein, which affects apoptosis. The potential for p53 overexpression to induce apoptosis may elucidate the frequent deactivation of p53 enzymes by cancer cells during transformation.
as §2

[1] = system: A-549 (lung) cancer cell line; test: Antiproliferative assay, A-549; format: cell-based, human; conditions: read-out: Antiproliferative activity IC50 ± SEM, A-549
Protocol: (§3) Table 1 presents the median inhibitory concentration (IC50) and GI50 (mean IC50) for the four cancer cell lines.
(§4) Refer to Appendix A for additional information.
(§5) To explore the antiproliferative potential of compounds propidium iodide fluorescence assay was performed using different cell lines such as Panc-1 (pancreas cancer cell line) [Panc-1-CTC (RRID:CVCL_VQ69)], MCF-7 (breast cancer cell line) [MCF-7 (RRID:CVCL_0031)], HT-29 (colon cancer cell line) [HT-29 (RRID:CVCL_0320)] and A-549 (epithelial cancer cell line)[A-549 (RRID:CVCL_0023)], respectively. All cell lines were obtained from ATCC (American Type Cell Culture).
(§6) To calculate the total nuclear DNA, a fluorescent dye (propidium iodide, PI) is used which can attach to the DNA, thus offering a quick and precise technique. PI cannot pass through the cell membrane and its signal intensity can be considered as directly proportional to quantity of cellular DNA. Cells whose cell membranes are damaged or have changed permeability are counted as dead ones. The assay was performed by seeding the cells of different cell lines at a density of 3000-7500 cells/well (in 200 μl medium) in culture plates followed by incubation for 24 h at 37 °C in humidified 5% CO2 /95% air atmospheric conditions. The medium was removed; the compounds were added to the plates at 10 μM concentrations (in 0.1% DMSO) in triplicates, followed by incubation for 48 h. DMSO (0.1%) was used as control. After incubation, medium was removed followed by the addition of PI (25 μl, 50 μg/mL in water/medium) to each well of the plates. At -80 °C, the plates were allowed to freeze for 24 h, followed by thawing at 25 °C. A fluorometer (Polar-Star BMG Tech) was used to record the readings at excitation and emission wavelengths of 530 and 620 nm for each well. The percentage cytotoxicity of compounds was calculated using the following formula: […]

EGFR = EGFR (Homo sapiens, UniProt P00533); test: EGFR-TK inhibitory assay
Protocol: To record autophosphorylation level, EGFR kinase assay was carried out on the basis of DELFIA/Time-Resolved Fluorometry. […] Each compound (10 μL) was incubated with recombinant enzyme (10 μL, 5 ng for EGFR, 1:80 dilution in 100 mM HEPES) for 10 min at 25 °C, subsequent to the addition of 5X buffer (10 μL, containing 2 mM MnCl2, 100 μM Na3VO4, 20 mM HEPES and 1 mM DTT) and ATP-MgCl2 (20 μL, containing 0.1 mM ATP and 50 mM MgCl2) and incubation for 1h. The negative and positive controls were included in each plate by the incubation of enzyme either with or without ATP-MgCl2. The liquid was removed after incubation and the plates were washed thrice using a wash buffer. The Europium-tagged antiphosphotyrosine antibody (75 μL, 400 ng) was added to each well followed by incubation of 1h and then washing of the plates using buffer. […] The autophosphorylation percentage inhibition by compounds was calculated using the following equation:
The majority of signals detected by antiphosphotyrosine antibody were from EGFR because the enzyme preparation contained low impurities.

[2] = system: HT-29 (colon) cancer cell line; test: Antiproliferative assay, HT-29; format: cell-based, human; conditions: read-out: Antiproliferative activity IC50 ± SEM, HT-29
Protocol: as §3, §4, §5, §6

[3] = system: four cancer cell lines (A-549, MCF-7, Panc-1, HT-29); test: Antiproliferative assay, mean over the four cancer cell lines (GI50); format: cell-based, human; conditions: for IC50: mean IC50 of A-549, MCF-7, Panc-1, HT-29
Text: as §3, §4
All cell lines were obtained from ATCC (American Type Cell Culture). […]

[4] = system: MCF-7 (breast) cancer cell line; test: Antiproliferative assay, MCF-7; format: cell-based, human; conditions: for IC50: read-out: Antiproliferative activity IC50 ± SEM, MCF-7; for Fold more potent than erlotinib (MCF-7 IC50): MCF-7 IC50 ratio to erlotinib
Protocol: as §3, §4, §5, §6

[5] = system: Panc-1 (pancreatic) cancer cell line; test: Antiproliferative assay, Panc-1; format: cell-based, human; conditions: read-out: Antiproliferative activity IC50 ± SEM, Panc-1
Protocol: as §3, §4, §5, §6

[6] = Cell viability assay (MTT) on normal cell line; conditions: human, MCF-10A normal mammary gland epithelial cells
Protocol: (§7) The viability of the investigated compounds was assessed using the normal human mammary gland epithelial cell line MCF-10A. After four days of incubation on MCF-10A cells with 50 µM of each examined compound, cell viability was assessed using the MTT test[46]^,[47].
(§8) The viability of 7a–o was determined using the normal human mammary gland epithelial (MCF-10A) cell line^46,[47].
(§9) MTT assay was performed to investigate the effect of the synthesized compounds on mammary epithelial cells (MCF-10A). The cells were propagated in medium consisting of Ham's F-12 medium/ Dulbecco's modified Eagle's medium (DMEM) (1:1) supplemented with 10% foetal calf serum (GIBCO, UK), 2 mM glutamine, insulin (10 μg/mL), hydrocortisone (500 ng/mL) and epidermal growth factor (20 ng/mL). Trypsin ethylenediamine tetra acetic acid (EDTA) was used to passage the cells after every 2-3 days. 96-well flat-bottomed cell culture plates were used to seed the cells at a density of 10^4 cells mL^-1. The medium was aspirated from all the wells of culture plates after 24 h followed by the addition of synthesized compounds (in 200 μL medium to yield a final concentration of 0.1% (v/v) dimethyl sulfoxide) into individual wells of the plates. Four wells were designated to a single compound. The plates were allowed to incubate at 37°C for 96 h. Afterwards, the medium was aspirated and 3-[4,5-dimethylthiazol-2-yl]-2,5-diphenyltetrazolium bromide (MTT) (0.4 mg/mL) in medium was added to each well and subsequently incubated for 3 h. The medium was aspirated and 150 μL dimethyl sulfoxide (DMSO) was added to each well. The plates were vortexed followed by the measurement of absorbance at 540 nm on a microplate reader.

VEGFR-2 = VEGFR-2 (Homo sapiens, UniProt P35968); test: VEGFR-2 kinase inhibitory assay
Protocol: Prepare all the solutions using autoclaved, deionized water and analytical grade reagents. Prepare and store all the reagents at room temperature (unless indicated otherwise). […] The assays used an ULight-labeled peptide substrate and a Europium-W1024-labeled antiphosphotyrosine antibody. The VEGFR-2 was purchased from Carna Biosciences, Inc. (New York, USA). The 384-well plates were obtained from PerkinElmer. […] Negative control: 2.5 μL/well 4×substrate/ATP mixture and 7.5 μL 1×kinase assay buffer in 384-well plate well. […] After incubation at room temperature and dark for 60 min, 5 μL 4×stop solution was added to corresponding wells to react for 5 min and then 5 μL 4×detection mix was added to the corresponding wells of a 384-well plate. The mixture was centrifugally mixed and stayed for 60 min at room temperature for color development. The plate was read using an Envision plate reader. The inhibition rate (%) = (positive well reading-compound well reading)/(positive well reading-negative well reading)×100. The corresponding IC50 values were calculated using GraphPad Prism 5.0.

VEGFR-2 kinase = conditions: read-out: VEGFR-2 kinase IC50; cited from earlier work
wild-type EGFR = system: wild-type EGFR; parameters: method as in PMID 26275028; conditions: cited from earlier work
EGFR^L858R = system: EGFR^L858R; parameters: method as in PMID 26275028; conditions: cited from earlier work
EGFR^T790M = system: EGFR^T790M; parameters: method as in PMID 26275028; conditions: cited from earlier work
MCF-10A = conditions: 50 µM
Protocol: as §7, §8, §9

Sequence of VEGFR-2 (P35968 20-1356): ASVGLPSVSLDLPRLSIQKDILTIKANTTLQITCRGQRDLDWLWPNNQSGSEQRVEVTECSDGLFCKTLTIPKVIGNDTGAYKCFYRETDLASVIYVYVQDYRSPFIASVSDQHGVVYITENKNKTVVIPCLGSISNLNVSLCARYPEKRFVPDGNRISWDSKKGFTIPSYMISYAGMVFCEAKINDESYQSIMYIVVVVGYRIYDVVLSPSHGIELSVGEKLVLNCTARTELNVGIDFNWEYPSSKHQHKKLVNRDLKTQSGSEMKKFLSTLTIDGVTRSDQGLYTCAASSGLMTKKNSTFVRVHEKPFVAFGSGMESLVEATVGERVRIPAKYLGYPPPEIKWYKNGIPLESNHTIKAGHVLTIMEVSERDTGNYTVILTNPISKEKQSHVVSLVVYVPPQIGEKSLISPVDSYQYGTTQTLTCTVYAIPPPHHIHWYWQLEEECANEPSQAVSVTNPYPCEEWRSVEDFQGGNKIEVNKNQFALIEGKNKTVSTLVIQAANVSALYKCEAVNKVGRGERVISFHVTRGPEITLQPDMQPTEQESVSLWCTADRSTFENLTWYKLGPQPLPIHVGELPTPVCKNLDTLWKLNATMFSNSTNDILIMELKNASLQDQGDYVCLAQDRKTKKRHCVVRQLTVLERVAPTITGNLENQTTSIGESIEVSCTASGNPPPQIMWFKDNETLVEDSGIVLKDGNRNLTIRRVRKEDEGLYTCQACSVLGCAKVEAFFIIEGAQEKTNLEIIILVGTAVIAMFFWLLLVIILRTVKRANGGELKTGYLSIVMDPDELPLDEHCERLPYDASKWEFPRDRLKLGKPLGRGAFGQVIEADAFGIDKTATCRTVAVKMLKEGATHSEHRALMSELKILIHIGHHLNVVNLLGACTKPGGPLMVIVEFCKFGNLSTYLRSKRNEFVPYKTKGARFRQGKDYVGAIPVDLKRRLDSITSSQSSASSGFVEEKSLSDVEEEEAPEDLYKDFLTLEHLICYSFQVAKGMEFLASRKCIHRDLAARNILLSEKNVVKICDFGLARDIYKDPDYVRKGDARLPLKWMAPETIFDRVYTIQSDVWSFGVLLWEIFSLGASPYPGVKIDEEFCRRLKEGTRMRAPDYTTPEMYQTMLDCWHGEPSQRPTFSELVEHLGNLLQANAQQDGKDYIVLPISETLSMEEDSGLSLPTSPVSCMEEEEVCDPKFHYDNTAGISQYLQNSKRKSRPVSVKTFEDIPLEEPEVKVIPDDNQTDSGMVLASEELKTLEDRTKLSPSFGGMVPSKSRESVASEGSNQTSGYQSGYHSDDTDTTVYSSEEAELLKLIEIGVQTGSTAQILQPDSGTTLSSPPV

Molecule	Bax level (Bax) [pg/mL]	Bax fold change (Bax)	Bcl-2 level (Bcl-2) [ng/mL]	p53 level (p53) [pg/mL]	IC50 ([1]; Homo sapiens, A549) [nM]	IC50 (EGFR; EGFR inhibition IC50 ± SEM) [nM]	IC50 ([2]; Homo sapiens) [nM]	IC50 ([3]; Homo sapiens) [nM]	IC50 ([4]; Homo sapiens, MCF7) [nM]	IC50 ([5]; Homo sapiens, PANC-1) [nM]	viability at 96 h, 50 µM [6] [%]	IC50 (VEGFR-2) [nM]	other results
CCS(=O)(=O)c1ccc2[nH]nc(C(=O)N/N=C/c3nc4ccccc4s3)c2c1 [Compound 7j, (E)-N′-(benzo[d]thiazol-2-ylmethylene)-5-(ethylsulfonyl)-1H-indazole-3-carbohydrazide]	505 ± 3	8 fold and 8.5 fold	1.50 ± 0.001	340 ± 2	26 ± 1	74 ± 4	27 ± 1	27	28 ± 1	26 ± 1	91	27 ± 1	–
CCS(=O)(=O)c1ccc2[nH]nc(C(=O)N/N=C/c3ccc(OC)nc3)c2c1 [Compound 7k, (E)-5-(ethylsulfonyl)-N′-((6-methoxypyridin-3-yl)methylene)-1H-indazole-3-carbohydrazide]	540 ± 3	9 fold	1.20 ± 0.001	371 ± 2	24 ± 1	71 ± 4	24 ± 1	25	26 ± 1	25 ± 1	93	21 ± 1	Bcl-2 fold reduction (Bcl-2; relative to untreated control): 4.2 fold; Fold more effective than erlotinib (GI50) ([3]; GI50 ratio to erlotinib): 1.3 fold; Fold more potent than erlotinib (MCF-7 IC50) [4]: 1.5 fold
CCS(=O)(=O)c1ccc2[nH]nc(C(=O)N/N=C/c3ccn(C)n3)c2c1 [Compound 7o, (E)-5-(ethylsulfonyl)-N′-((1-methyl-1H-pyrazol-3-yl)methylene)-1H-indazole-3-carbohydrazide]	480 ± 2	8 fold	1.80 ± 0.001	285 ± 2	29 ± 1	76 ± 4	29 ± 1	30	32 ± 1	29 ± 1	92	31 ± 2	Fold more potent than erlotinib (MCF-7 IC50) [4]: 1.25 fold
CN(c1ccc2cn(C)nc2c1)c1ccnc(Nc2ccc(OC(F)(F)F)cc2)n1 [Compound IX]	–	–	–	–	–	–	–	–	–	–	–	–	IC50 (VEGFR-2 kinase): 12 nM
C=CC(=O)Nc1cccc(Oc2nc(Nc3n[nH]c4ccccc34)cc(N3CCN(C)CC3)n2)c1 [Compound VIII]	–	–	–	–	–	–	–	–	–	–	–	–	IC50 (wild-type EGFR): 1700 nM; IC50 (EGFR^L858R): 500 nM; IC50 (EGFR^T790M): 70 nM
(E)-5-(ethylsulfonyl)-N′-(3-methoxybenzylidene)-1H-indazole-3-carbohydrazide [Compound 7l]	–	–	–	–	–	–	–	–	–	–	–	–	IC50 ([1]; A-549): 41 ± 3 nM; IC50 (EGFR; read-out: EGFR inhibition IC50 ± SEM): 87 ± 5 nM; IC50 [2]: 42 ± 4 nM; Fold less potent than 7k (GI50) ([3]; GI50 ratio to 7k): 1.7 fold; IC50 [3]: 42 nM; IC50 ([4]; MCF-7): 43 ± 3 nM; Cell viability % (MCF-10A): 91%; IC50 ([5]; Panc-1): 42 ± 4 nM; IC50 (VEGFR-2; read-out: VEGFR-2 inhibition IC50 ± SEM, kinase assay): 45 ± 3 nM

— paper PMC12897534, “Design, synthesis, and antiproliferative activity of new 5-ethylsulfonyl-indazole-3-carbohydrazides as dual EGFR/VEGFR-2 kinases inhibitors” (Journal of Enzyme Inhibition and Medicinal Chemistry, 2025)
